According to patent US9907763B2, “Method of treating or preventing the visual function loss by using 4-(phenylsulfanyl)butane-2-one (4-PSB-2)” (NATIONAL SUN YAT-SEN UNIVERSITY, priority 2016, dated 2018):

Assays:
[1] = tested on: Wistar rats; assay: Flash visual-evoked potentials (FVEPs) after optic nerve crush; assay type: in vivo; details: 2 weeks after ON crush; 5 mg/kg s.c. once; n=6; sham 83±3 ms, PBS 154±23 ms
Experimental: (§1) Forty five adult male Wistar rats weighing 150-180 g (7-8 weeks old) were used and grouped (Table 1). All manipulations were performed with animals under general anesthesia induced by an intramuscular injection of a mixture of ketamine (40 mg/kg body weight (BW)) and xylazine (4 mg/kg BW). In addition, topical 0.5% Alcaine eye drops (Alcon, Puurs, Belgium) were used to perform topical anesthesia.
(§2) After general anesthesia and topical Alcaine eye drop application, the ON was exposed and isolated. Care was taken to avoid damaging the small vessels around the ON. A vascular clip (60 g micro-vascular clip) was then applied to the ON 2 mm posterior to the globe for 30 seconds. After the surgery, Tobradex eye ointment (Alcon, Puurs, Belgium) was administered. The rats were kept on electric heating pads at 37° C. for recovery. The control group received a sham operation that entailed ON exposure without the crush. 4-PSB-2 (5 mg/kg in 0.2 mL phosphate-buffered saline) or phosphate buffered saline (PBS control) was immediately administered after ON crush once by subcutaneous injection.
For the functional evaluation of the ON, FVEPs were recorded 2 weeks after ON crush in 18 experimental rats. […]

[2] = tested on: Cd11b; assay: Immunohistochemistry of Cd11b in the retina after optic nerve crush; assay type: in vivo, Wistar rats; details: two weeks after ON crush, 5 mg/kg s.c. once, n=6, sham 2.3±1.7, PBS 40.0±9.7
Experimental: as §1
(§3) After general anesthesia and topical Alcaine eye drop application, the ON was exposed and isolated. Care was taken to avoid damaging the small vessels around the ON. A vascular clip (60 g micro-vascular clip) was then applied to the ON 2 mm posterior to the globe for 30 seconds. After the surgery, Tobradex eye ointment (Alcon, Puurs, Belgium) was administered. The rats were kept on electric heating pads at 37° C. for recovery. […]
(§4) IHC of ED1 (CD68, a marker of macrophage/microglia) in the ONs and IHC of CD11b, iNOS and COX-2 in the retina using monoclonal antibodies (ED1, 1:50; CD11b, 1:20; AbD Serotec, Oxford, UK) or polyclonal antibodies (iNOS, 1:50; Cell signaling Inc. Beverly, Mass., USA; COX-2, 1:50; Santa Cruz, Calif., USA) were performed. […] For comparison, ED1 positive cells were counted in six HPF at the lesion site of ON (six rats in each group). Cd11b positive cells were counted in six HPF and three sections per eye were averaged.

[3] = tested on: ED1 (CD68, a marker of macrophage/microglia); assay: Immunohistochemistry of ED1 in the ONs after optic nerve crush; assay type: in vivo, Wistar rats; details: lesion site of ON; two weeks after ON crush; 5 mg/kg s.c. once; n=6; sham 4.3±2.5, PBS 67.3±21.1
Experimental: as §1, §3, §4

[4] = tested on: RGC layer; assay: TUNEL assay in retinal sections after optic nerve crush; assay type: in vivo, Wistar rats; details: RGC layer of retina; two weeks after ON crush; 5 mg/kg s.c. once; n=6; sham 2.0±1.7, PBS 14.8±6.5
Experimental: as §1
as §3, with “recovery. The control group received a sham operation that entailed ON exposure without the crush.” for “recovery.”
To ensure the use of equivalent fields for comparison, all retinal frozen sections were prepared with retinas at 1-2 mm distance from the optic nerve head. […] The TUNEL positive cells in the RGC layer of each sample were counted in ten high powered fields (HPF, ×400 magnification), and three sections per eye were averaged.

[5] = tested on: COX-2; assay: Immunoblotting and immunohistochemical analysis of COX-2 expression in the retina after ON crush; assay type: in vivo, Wistar rats; details: two weeks after ON crush, 5 mg/kg s.c. once, ratio to GAPDH, n=3, result in words
Experimental: as §1, §3
as §4, with “averaged. […]” for “averaged.”

[6] = tested on: iNOS; assay: Immunoblotting and immunohistochemical analysis of iNOS expression in the retina after ON crush; assay type: in vivo, Wistar rats; details: two weeks after ON crush, 5 mg/kg s.c. once, ratio to GAPDH, n=3, result in words
Experimental: as §1, §3
as §4, with “averaged. […]” for “averaged.”

[7] = tested on: RGCs; assay: Retrograde Fluoro-Gold labeling of RGCs and RGC densities after optic nerve crush; assay type: in vivo, Wistar rats; details: two weeks after ON crush
Experimental: as §1, §2
With this technique, only the RGCs with intact axons projected to the SC were labeled with FG. The procedure was performed based on Chang et al (Exp. Eye Res., 2004, 118, 109-116). Briefly, one week before sacrificing, the rats were anesthetized using a ketamine (100 mg/kg) and Xylazine (10 mg/kg) mixture, and then placed in a stereotactic apparatus. […] One week after labeling, the eyeballs were harvested after euthanasia of the animals. The eyeballs were placed in 10% formalin and iii the whole retina was then carefully dissected, flattened. The retina was examined with a 400× epi-fluorescence microscope equipped with a filter set (excitation filter=350-400 nm; barrier filter=515 nm), as well as a digital camera and software. The retinas were examined for RGCs at a distance of 1 or 3 mm from the optic nerve head in order to provide the central and mid-peripheral RGC densities respectively (FIG. 1A). RGCs were counted in eight areas randomly of […]/each in the central (about 40% of the central area) (FIG. 1B), and eight areas randomly of 38,250 mm^2/each in the mid-peripheral (about 30% of the mid-periphery) regions of each retina. The averages of these areas were taken as the mean density of RGCs per retina. RGC survival percentage was defined as the number of RGCs in each treatment group divided by the number of RGCs in the sham operated retina, multiplied by 100.

## CC(=O)CCSc1ccccc1 [4-PSB-2, 4-(phenylsulfanyl)butan-2-one]
[1]
  latency of the P1 wave (FVEP): 118 ± 14 ms
[2]
  Cd11b positive cells/HPF: 17.3±5.9 positive cells/HPF
[3]
  ED1 positive cells/HPF: 33.5±14.5 positive cells/HPF
[4]
  TUNEL positive cells in the RGC layer: 6.7±3.4 positive cells/HPG
[5]
  COX-2 expression in the retina: prevented the increase
[6]
  iNOS expression in the retina: prevented the increase
[7]; central retina, 5 mg/kg once by subcutaneous injection immediately after crush, n=6
  densities of RGCs in the central retina: 1342±473 /mm^2
[7]; central retina, relative to sham operated retina, 5 mg/kg s.c. once
  RGC survival, central retina: 56.8 % survival
[7]; central retina, vs PBS-treated group, p<0.05
  RGC survival rate increase as compared to the PBS-treated group, central retina: approximately 35.7%
[7]; mid-peripheral retina, 5 mg/kg once by subcutaneous injection immediately after crush, n=6
  densities of RGCs in mid-peripheral retina: 915±244 /mm^2
[7]; mid-peripheral retina, relative to sham operated retina, 5 mg/kg s.c. once
  RGC survival, mid-peripheral retina: 65.3 % survival
[7]; mid-peripheral retina, vs PBS-treated group, p<0.05
  RGC survival rate increase as compared to the PBS-treated group, mid-peripheral retina: ~35.3%
